Results as given in patent US6987004B1, “Genes integrating signal transduction pathways” (Massachusetts Institute of Technology, priority 1998, dated 2006).

What was measured:
CalDAG-GEFII = molecular target: T1, CalDAG-GEFII (Rattus norvegicus, UniProt Q9R1K8); assay: Guanine nucleotide exchange activity in 293T cells transfected with CalDAG-GEFII (H-Ras activation); format: cell-based
T1 construct: expressed in transfected cells; host or cells: 293T cells
T1 sequence (Q9R1K8 1-795): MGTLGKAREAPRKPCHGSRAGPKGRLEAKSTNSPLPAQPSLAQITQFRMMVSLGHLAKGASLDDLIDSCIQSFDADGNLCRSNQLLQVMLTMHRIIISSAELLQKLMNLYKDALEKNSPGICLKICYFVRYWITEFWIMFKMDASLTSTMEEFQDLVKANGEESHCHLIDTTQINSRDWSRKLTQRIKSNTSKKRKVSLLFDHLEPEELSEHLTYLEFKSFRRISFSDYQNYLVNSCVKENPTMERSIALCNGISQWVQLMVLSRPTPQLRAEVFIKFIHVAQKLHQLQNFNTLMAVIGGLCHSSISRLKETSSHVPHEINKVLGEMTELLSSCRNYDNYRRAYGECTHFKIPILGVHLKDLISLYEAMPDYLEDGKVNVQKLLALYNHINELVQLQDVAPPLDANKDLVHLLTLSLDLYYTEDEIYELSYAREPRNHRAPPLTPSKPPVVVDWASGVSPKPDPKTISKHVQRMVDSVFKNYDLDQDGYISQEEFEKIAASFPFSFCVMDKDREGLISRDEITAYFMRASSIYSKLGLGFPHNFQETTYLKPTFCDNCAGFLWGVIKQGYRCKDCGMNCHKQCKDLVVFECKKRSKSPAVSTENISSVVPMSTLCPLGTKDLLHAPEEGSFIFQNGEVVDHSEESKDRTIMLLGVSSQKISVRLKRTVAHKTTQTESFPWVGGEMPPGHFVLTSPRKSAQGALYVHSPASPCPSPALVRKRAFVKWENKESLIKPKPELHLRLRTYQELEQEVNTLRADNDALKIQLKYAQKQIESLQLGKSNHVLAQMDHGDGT
Method: (§1) To determine the small G protein target of CalDAG-GEFI, guanine nucleotide exchange activity in vivo was analyzed using intact 293T cells cotransfected with a eukaryotic expression construct of mouse CalDAG-GEFI and GST-tagged Ras family proteins. Full-length mouse CalDAG-GEFI cDNA inserted into a pCMV-SPORT expression vector with a carboxy-terminal FLAG epitope was used for transfection. A PCR-amplified fragment of rat CalDAG-GEFII was subcloned into a pCAGGS expression vector with the addition of His6-tag at its amino-terminus, resulting in pCAGGS-His-CalDAGII. pEBG-Krev1 that expresses Rap1A was used as a fusion protein to glutathione S-transferase (GST) in mammalian cells, as described in Gotoh et al., 15 Mol. Cell Biol. 6746–53 (1995), pEBG-R-Ras, other vectors for Ras-family proteins obtained by inserting PCR-amplified cDNAs into pEBG expression vector, pCAGGS-C3G and pCAGGS-MSos1, and pCEV-H-RasVl2.
To determine the effect of CalDAG-GEFI on the Erk/MAP kinase cascade, Elk1 activation was measured in 293T cells transfected with CalDAG-GEFI or constitutively active H-Ras (RasV12), or both. […] 293T cells were transfected with pFR-Luc and pFA-Elk1 with various expression vectors, and light output was detected and analyzed by the use of LAS1000 film. […]

CalDAG-GEFI = molecular target: T2, CalDAG-GEFI (Mus musculus, UniProt Q9QUG9); assay: Guanine nucleotide exchange activity in intact 293T cells cotransfected with mouse CalDAG-GEFI and GST-tagged Rap1A; format: cell-based; settings: 10 μM A23187 or 1 μM TPA for 3 min
T2 construct: expressed in transfected cells; host or cells: 293T cells
T2 sequence (Q9QUG9 with tags, fused parts or gaps M73V/I83V/Q99P/R233K/C339S/E542D/S598T limits assumed): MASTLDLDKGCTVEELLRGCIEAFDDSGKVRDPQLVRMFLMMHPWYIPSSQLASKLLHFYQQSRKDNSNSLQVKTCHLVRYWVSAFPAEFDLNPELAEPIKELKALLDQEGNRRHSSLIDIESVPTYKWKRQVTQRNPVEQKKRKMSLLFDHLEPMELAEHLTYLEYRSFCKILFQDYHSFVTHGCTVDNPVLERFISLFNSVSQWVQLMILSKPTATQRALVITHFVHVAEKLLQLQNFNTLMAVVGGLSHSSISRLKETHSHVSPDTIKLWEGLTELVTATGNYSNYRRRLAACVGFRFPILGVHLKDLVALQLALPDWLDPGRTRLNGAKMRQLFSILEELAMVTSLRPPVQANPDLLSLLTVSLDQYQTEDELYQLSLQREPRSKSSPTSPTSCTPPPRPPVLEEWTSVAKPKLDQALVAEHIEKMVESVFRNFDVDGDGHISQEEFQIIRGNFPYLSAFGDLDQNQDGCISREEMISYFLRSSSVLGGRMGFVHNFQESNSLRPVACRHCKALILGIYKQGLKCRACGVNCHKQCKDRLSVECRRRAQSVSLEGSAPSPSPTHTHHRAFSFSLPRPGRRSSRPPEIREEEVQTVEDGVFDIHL
Method: as §1
To determine the effect of CalDAG-GEFI on the Erk/MAP kinase cascade, Elk1 activation was measured in 293T cells transfected with CalDAG-GEFI or constitutively active H-Ras (RasV12), or both. […] 293T cells were transfected with pFR-Luc and pFA-Elk1 with various expression vectors, and light output was detected and analyzed by the use of LAS1000 film.

[1] = molecular target: Rap1A as a fusion protein to glutathione S-transferase (pEBG-Krev1) (UniProt P62834)
cAMP-GEFI = molecular target: T3, cAMP-GEFI (Rattus norvegicus, UniProt Q9Z1C8); assay: cAMP agarose affinity bead binding assay; settings: excess amounts of competitor; in vitro translated cAMP-GEFI
T3 sequence (Q9Z1C8 43-926 limits assumed): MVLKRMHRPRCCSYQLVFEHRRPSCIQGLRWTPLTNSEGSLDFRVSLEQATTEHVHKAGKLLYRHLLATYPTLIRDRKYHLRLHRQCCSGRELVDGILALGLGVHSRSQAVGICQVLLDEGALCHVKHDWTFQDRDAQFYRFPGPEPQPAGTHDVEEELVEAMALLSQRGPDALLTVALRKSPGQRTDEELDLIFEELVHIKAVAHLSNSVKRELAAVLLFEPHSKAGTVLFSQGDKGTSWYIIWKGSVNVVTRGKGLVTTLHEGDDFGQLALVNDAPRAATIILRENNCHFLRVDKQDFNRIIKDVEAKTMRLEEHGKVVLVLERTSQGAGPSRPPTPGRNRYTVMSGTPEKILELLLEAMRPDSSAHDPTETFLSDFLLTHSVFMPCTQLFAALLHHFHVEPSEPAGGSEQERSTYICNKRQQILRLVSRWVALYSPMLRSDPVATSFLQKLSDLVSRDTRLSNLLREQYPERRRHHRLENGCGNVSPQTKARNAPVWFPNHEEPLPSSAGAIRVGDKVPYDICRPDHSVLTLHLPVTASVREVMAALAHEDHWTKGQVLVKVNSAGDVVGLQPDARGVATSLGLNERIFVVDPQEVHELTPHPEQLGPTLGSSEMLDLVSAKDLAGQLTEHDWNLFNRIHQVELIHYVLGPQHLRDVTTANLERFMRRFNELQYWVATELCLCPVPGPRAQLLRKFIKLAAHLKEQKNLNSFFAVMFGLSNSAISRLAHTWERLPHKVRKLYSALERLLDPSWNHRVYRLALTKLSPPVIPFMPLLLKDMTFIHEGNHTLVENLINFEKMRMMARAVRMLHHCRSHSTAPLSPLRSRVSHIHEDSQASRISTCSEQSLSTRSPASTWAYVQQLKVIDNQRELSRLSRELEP

Elk1 = Elk1 activation in 293T cells (PathDetect Elk1 transreporting system); format: cell-based; settings: for Activation of Elk1 by the GEF itself: 293T cells transfected with the GEF
Method: To determine the effect of CalDAG-GEFI on the Erk/MAP kinase cascade, Elk1 activation was measured in 293T cells transfected with CalDAG-GEFI or constitutively active H-Ras (RasV12), or both. 293T cells were transfected by SuperFect (Qiagen) as described in Gotoh, supra, with expression vectors for GST-tagged Ras family proteins and with those for various GEFs. Cells were labeled 24 hours after transfection with ^32Pi for 2 hr. In some experiments, cells were stimulated with either 10 μM A23187 or 1 μM phorbol-12-myristate-13-acetate (TPA) for 3 min. GST-tagged Ras family proteins were collected from cell lysates with glutathione Sepharose. Guanine nucleotides bound to Ras family proteins were separated by thin layer chromatography (TLC). Activation of Elk1 was examined by the PathDetect Elk1 transreporting system (Stratagene). 293T cells were transfected with pFR-Luc and pFA-Elk1 with various expression vectors, and light output was detected and analyzed by the use of LAS1000 film.

Rap1A as a fusion protein to glutathione S-transferase (pEBG-Krev1), sequence (P62834 whole entry, the tested form may be a part): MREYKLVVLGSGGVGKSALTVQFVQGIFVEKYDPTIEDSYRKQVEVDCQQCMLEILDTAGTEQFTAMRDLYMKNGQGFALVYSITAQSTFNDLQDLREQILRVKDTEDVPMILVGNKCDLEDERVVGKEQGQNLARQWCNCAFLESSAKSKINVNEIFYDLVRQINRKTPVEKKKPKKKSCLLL

| Molecule | Effect on CalDAG-GEFII H-Ras activation (CalDAG-GEFII) | Effect on CalDAG-GEFI-induced increase in GTP-bound Rap1A (CalDAG-GEFI) | Activation of Elk1 by the GEF itself (Elk1) | further results |
| --- | --- | --- | --- | --- |
| CNc1ccc2oc(C[C@H]3O[C@@]4(CC[C@H]3C)O[C@H]([C@H](C)C(=O)c3ccc[nH]3)[C@H](C)C[C@H]4C)nc2c1C(=O)O [A23187] | enhanced | augmented |  |  |
| CCCCCCCCCCCCCC(=O)O[C@@H]1[C@@H](C)[C@@]2(O)[C@@H](C=C(CO)C[C@]3(O)C(=O)C(C)=C[C@@H]23)[C@@H]2C(C)(C)[C@]12OC(C)=O [TPA, phorbol-12-myristate-13-acetate] | enhanced | augmented |  |  |
| cAMP-GEFI (wild type) |  |  |  | time-course of the activation of Rap1A by forskolin/IBMX in cAMP-GEFI transfectants [1]: the activation began within 10 sec, reached a maximum at 5 min, and continued for at least 60 min |
| Nc1ncnc2c1nc(Br)n2[C@@H]1O[C@@H]2COP(=O)(O)O[C@H]2[C@H]1O [8-Br-cAMP] |  |  |  | Competition of radiolabeled cAMP-GEFI binding to cAMP agarose beads (cAMP-GEFI): competed |
| CalDAG-GEFI: guanine nucleotide exchange factor with Ca2+ and DAG binding domains, substrate Rap1A; mouse cDNA expressed in 293T cells (protein) MASTLDLDKGCTVEELLRGCIEAFDDSGKVRDPQLVRMFLMMHPWYIPSSQLASKLLHFYQQSRKDNSNSLQVKTCHLVRYWVSAFPAEFDLNPELAEPIKELKALLDQEGNRRHSSLIDIESVPTYKWKRQVTQRNPVEQKKRKMSLLFDHLEPMELAEHLTYLEYRSFCKILFQDYHSFVTHGCTVDNPVLERFISLFNSVSQWVQLMILSKPTATQRALVITHFVHVAEKLLQLQNFNTLMAVVGGLSHSSISRLKETHSHVSPDTIKLWEGLTELVTATGNYSNYRRRLAACVGFRFPILGVHLKDLVALQLALPDWLDPGRTRLNGAKMRQLFSILEELAMVTSLRPPVQANPDLLSLLTVSLDQYQTEDELYQLSLQREPRSKSSPTSPTSCTPPPRPPVLEEWTSVAKPKLDQALVAEHIEKMVESVFRNFDVDGDGHISQEEFQIIRGNFPYLSAFGDLDQNQDGCISREEMISYFLRSSSVLGGRMGFVHNFQESNSLRPVACRHCKALILGIYKQGLKCRACGVNCHKQCKDRLSVECRRRAQSVSLEGSAPSPSPTHTHHRAFSFSLPRPGRRSSRPPEIREEEVQTVEDGVFDIHL |  |  | did not itself activate Elk1 | Reduction of RasV12 activation of Elk1 (Elk1; 293T cells cotransfected with constitutively active H-Ras (RasV12)): approximately 4 fold |
| CalDAG-GEFII: guanine nucleotide exchange factor activating H-Ras and R-Ras; rat cDNA expressed in 293T cells (protein, left off: small tags and cut ends, rat cDNA expressed in 293T cells) MGTLGKAREAPRKPCHGSRAGPKGRLEAKSTNSPLPAQPSLAQITQFRMMVSLGHLAKGASLDDLIDSCIQSFDADGNLCRSNQLLQVMLTMHRIIISSAELLQKLMNLYKDALEKNSPGICLKICYFVRYWITEFWIMFKMDASLTSTMEEFQDLVKANGEESHCHLIDTTQINSRDWSRKLTQRIKSNTSKKRKVSLLFDHLEPEELSEHLTYLEFKSFRRISFSDYQNYLVNSCVKENPTMERSIALCNGISQWVQLMVLSRPTPQLRAEVFIKFIHVAQKLHQLQNFNTLMAVIGGLCHSSISRLKETSSHVPHEINKVLGEMTELLSSCRNYDNYRRAYGECTHFKIPILGVHLKDLISLYEAMPDYLEDGKVNVQKLLALYNHINELVQLQDVAPPLDANKDLVHLLTLSLDLYYTEDEIYELSYAREPRNHRAPPLTPSKPPVVVDWASGVSPKPDPKTISKHVQRMVDSVFKNYDLDQDGYISQEEFEKIAASFPFSFCVMDKDREGLISRDEITAYFMRASSIYSKLGLGFPHNFQETTYLKPTFCDNCAGFLWGVIKQGYRCKDCGMNCHKQCKDLVVFECKKRSKSPAVSTENISSVVPMSTLCPLGTKDLLHAPEEGSFIFQNGEVVDHSEESKDRTIMLLGVSSQKISVRLKRTVAHKTTQTESFPWVGGEMPPGHFVLTSPRKSAQGALYVHSPASPCPSPALVRKRAFVKWENKESLIKPKPELHLRLRTYQELEQEVNTLRADNDALKIQLKYAQKQIESLQLGKSNHVLAQMDHGDGT |  |  | increased the transcriptional activity of Elk1 |  |
